This note sets out measurements from patent US7273885B2, “Inhibitors of serine proteases, particularly HCV NS3-NS4A protease” (Vertex Pharmaceuticals Incorporated, priority 2002, dated 2007).

For assay [1], the target named is HCV NS3-NS4A protease (tNS3 with KK4A) (Hepatitis C virus genotype 1a, UniProt P27958). Description: HCV Ki assay (HPLC microbore separation of 5AB substrate and products). It counts as biochemical. As for the experimental part: HPLC Microbore Method for Separation of 5AB Substrate and Products
Chain of HCV NS3-NS4A protease (tNS3 with KK4A) (P27958 1027-1208): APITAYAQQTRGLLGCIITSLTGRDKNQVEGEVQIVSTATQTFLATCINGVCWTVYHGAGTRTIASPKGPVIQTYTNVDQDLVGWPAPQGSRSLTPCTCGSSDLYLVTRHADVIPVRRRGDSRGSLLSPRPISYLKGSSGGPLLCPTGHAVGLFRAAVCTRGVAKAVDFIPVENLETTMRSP
• Substrate: • NH2-Glu-Asp-Val-Val-(alpha)Abu-Cys-Ser-Met-Ser-Tyr-COOH
A stock solution of 20 mM 5AB (or concentration of your choice) was made in DMSO w/ 0.2M DTT. This was stored in aliquots at −20 C.
Buffer: 50 mM HEPES, pH 7.8; 20% glycerol; 100 mM NaCl
Total assay volume was 100 μL
The buffer, KK4A, DTT, and tNS3 were combined; distributed 78 μL each into wells of 96 well plate. This was incubated at 30 C for ˜5–10 min.
2.5 μL of appropriate concentration of test compound was dissolved in DMSO (DMSO only for control) and added to each well. This was incubated at room temperature for 15 min.
Initiated reaction by addition of 20 μL of 250 μM 5AB substrate (25 μM concentration is equivalent or slightly lower than the Km for 5AB).
Incubated for 20 min at 30 C.
Terminated reaction by addition of 25 μL of 10% TFA
Transferred 120 μL aliquots to HPLC vials
Separated SMSY product from substrate and KK4A by the following method:
Microbore Separation Method:
Instrumentation: Agilent 1100
• Degasser G1322A • Binary pump G1312A • Autosampler G1313A • Column thermostated chamber G1316A • Diode array detector G1315A Column:
Phenomenex Jupiter; 5 micron C18; 300 angstroms; 150×2 mm; P/O 00F-4053-B0 • Column thermostat: 40 C • Injection volume: 100 μL • Solvent A=HPLC grade water+0.1% TFA • Solvent B=HPLC grade acetonitrile+0.1% TFA
• Stop time: 17 min • Post-run time: 10 min.

Assay [2] has as its system Cells containing hepatitis C virus (HCV) replicon. Description: HCV replicon cell assay (Taqman RT-PCR of HCV RNA). It counts as cell-based. Particulars: 50% inhibition of HCV RNA level, 48-hour incubation, HCV replicon cells, read-out: IC50. As for the experimental part:
HCV Replicon Cell Assay Protocol
Cells containing hepatitis C virus (HCV) replicon were maintained in DMEM containing 10% fetal bovine serum (FBS), 0.25 mg per ml of G418, with appropriate supplements (media A).
On day 1, replicon cell monolayer was treated with a trypsin:EDTA mixture, removed, and then media A was diluted into a final concentration of 100,000 cells per ml wit. 10,000 cells in 100 ul were plated into each well of a 96-well tissue culture plate, and cultured overnight in a tissue culture incubator at 37° C.
On day 2, compounds (in 100% DMSO) were serially diluted into DMEM containing 2% FBS, 0.5% DMSO, with appropriate supplements (media B). The final concentration of DMSO was maintained at 0.5% throughout the dilution series.
Media on the replicon cell monolayer was removed, and then media B containing various concentrations of compounds was added. Media B without any compound was added to other wells as no compound controls.
Cells were incubated with compound or 0.5% DMSO in media B for 48 hours in a tissue culture incubator at 37° C. At the end of the 48-hour incubation, the media was removed, and the replicon cell monolayer was washed once with PBS and stored at −80° C. prior to RNA extraction.
Culture plates with treated replicon cell monolayers were thawed, and a fixed amount of another RNA virus, such as Bovine Viral Diarrhea Virus (BVDV) was added to cells in each well. RNA extraction reagents (such as reagents from RNeasy kits) were added to the cells immediately to avoid degradation of RNA. Total RNA was extracted according the instruction of manufacturer with modification to improve extraction efficiency and consistency. Finally, total cellular RNA, including HCV replicon RNA, was eluted and stored at −80° C. until further processing.
A Taqman real-time RT-PCR quantification assay was set up with two sets of specific primers and probe. One was for HCV and the other was for BVDV. Total RNA extractants from treated HCV replicon cells was added to the PCR reactions for quantification of both HCV and BVDV RNA in the same PCR well. Experimental failure was flagged and rejected based on the level of BVDV RNA in each well. The level of HCV RNA in each well was calculated according to a standard curve run in the same PCR plate. The percentage of inhibition or decrease of HCV RNA level due to compound treatment was calculated using the DMSO or no compound control as 0% of inhibition. The IC50 (concentration at which 50% inhibition of HCV RNA level is observed) was calculated from the titration curve of any given compound.
On the technique in general: In antiviral work, replicon cells carry a viral genome segment that copies itself.

Where only a bound is given, the exact number is not on record here.

The Ki is a measure of affinity in units of concentration, obtained from inhibition or displacement. A high value points to a looser hold on the target. In general, IC50 refers to the concentration needed to halve the response being measured.

As for `CCC[C@H](NC(=O)[C@@H]1C[C@@H]2CCCC[C@@H]2N1C(=O)[C@@H](NC(=O)[C@@H](NC(=O)c1cc(Cl)c(Cl)[nH]1)C1CCCCC1)C(C)(C)C)C(=O)C(=O)NC1CC1` [Compound 43a], in assay [1], the Ki is less than 0.5 µM. For the same compound, the IC50 in assay [2] is less than 0.5 µM.
As for `CCC[C@H](NC(=O)[C@@H]1C[C@@H]2CCCC[C@@H]2N1C(=O)[C@@H](NC(=O)[C@@H](NC(=O)c1cc(C(=O)CC)c[nH]1)C1CCCCC1)C(C)(C)C)C(=O)C(=O)NC1CC1` [Compound 44a], the Ki in assay [1] was less than 0.5 µM. In addition, the IC50 in assay [2] was less than 0.5 µM.
Compound `CC(=O)c1c(C(=O)N[C@H](C(=O)N[C@H](C(=O)N2[C@H](C(=O)NC(CCC(F)(F)F)C(=O)C(=O)NC3CC3)C[C@@H]3CCCC[C@@H]32)C(C)(C)C)C2CCCCC2)[nH]c(C)c1C` (stereo partly drawn) [Compound 45a] gave a Ki in assay [1] of less than 0.5 µM. In addition, the IC50 in assay [2] was less than 0.5 µM.
On to `CCC[C@H](NC(=O)[C@@H]1C[C@@H]2CCCC[C@@H]2N1C(=O)[C@@H](NC(=O)[C@@H](NC(=O)[C@@H]1Cc2ccccc2N1)C1CCCCC1)C(C)(C)C)C(=O)C(=O)NC1CC1` [Compound 46a], for which the Ki in assay [1] was less than 0.5 µM. Also, the IC50 in assay [2] was 1 to 5 µM.
Consider `CCC[C@H](NC(=O)[C@@H]1C[C@@H]2CCCC[C@@H]2N1C(=O)[C@@H](NC(=O)[C@@H](NC(=O)c1cnccn1)C1CCCCC1)C(C)(C)C)C(=O)C(=O)N[C@@H]1CCOC1` [Compound 47a], for which the Ki in assay [1] fell in the range of 0.5 to 1 µM. Further, the IC50 in assay [2] was in the range of 1 to 5 µM.
In assay [1], `C=CCNC(=O)C(=O)[C@H](CCC)NC(=O)[C@@H]1C[C@@H]2CCCC[C@@H]2N1C(=O)[C@@H](NC(=O)[C@@H](NC(=O)c1cnccn1)C1CCCCC1)C(C)(C)C` [Compound 51a] returned a Ki of less than 0.5 µM. Besides, the IC50 in assay [2] was in the range of 0.5 to 1 µM.
On the same counts, the results for `CCC[C@H](NC(=O)[C@@H]1C[C@@H]2CCCC[C@@H]2N1C(=O)[C@@H](NC(=O)[C@@H](NC(=O)c1[nH]c(C)c(C(C)=O)c1C#N)C1CCCCC1)C(C)(C)C)C(=O)C(=O)NC1CC1` [Compound 52a] are less than 0.5 µM and less than 0.5 µM.
Turning to `CCC[C@H](NC(=O)[C@@H]1C[C@@H]2CCCC[C@@H]2N1C(=O)[C@@H](NC(=O)[C@@H](NC(=O)c1[nH]c(C)c(C(C)=O)c1-c1ccccc1)C1CCCCC1)C(C)(C)C)C(=O)C(=O)NC1CC1` [Compound 53a], the Ki in assay [1] was less than 0.5 µM. In assay [2], the IC50 was less than 0.5 µM.
In turn, `CCC[C@@H](NC(=O)[C@@H]1C[C@@H]2CCCC[C@@H]2N1C(=O)[C@@H](NC(=O)[C@@H](NC(=O)c1cnccn1)C1CCCCC1)C(C)(C)C)C(=O)C(=O)NC1CC1` [Compound 60a] yielded a Ki in assay [1] of 1 to 5 µM. The half-maximal inhibitory concentration (IC50) in assay [2] was in the range of 1 to 5 µM.
Consider `CC(=O)c1c(C(=O)N[C@H](C(=O)N[C@H](C(=O)N2[C@H](C(=O)N[C@@H](CC(F)F)C(=O)C(=O)NC3CC3)C[C@@H]3CCCC[C@@H]32)C(C)(C)C)C2CCCCC2)[nH]c(C)c1C` [Compound 61a], for which the Ki in assay [1] was less than 0.5 µM. Moreover, the IC50 in assay [2] was less than 0.5 µM.
In turn, `CCC[C@H](NC(=O)[C@@H]1[C@@H](C2CCCCC2)CCN1C(=O)[C@@H](NC(=O)[C@@H](NC(=O)c1[nH]c(C)c(C)c1C(C)=O)C1CCCCC1)C(C)(C)C)C(=O)C(=O)NC1CC1` [Compound 63] had a Ki in assay [1] of less than 0.5 µM. Moreover, the IC50 in assay [2] was 0.5 to 1 µM.
As for `CCC[C@H](NC(=O)[C@@H]1[C@@H](C(C)C)CCN1C(=O)[C@@H](NC(=O)[C@@H](NC(=O)c1[nH]c(C)c(C)c1C(C)=O)C1CCCCC1)C(C)(C)C)C(=O)C(=O)NC1CC1` [Compound 64], the Ki in assay [1] is less than 0.5 µM. The IC50 in assay [2] is less than 0.5 µM.
The compound `CCC[C@H](NC(=O)[C@@H]1[C@H]2CC[C@H](C2)N1C(=O)[C@@H](NC(=O)[C@@H](NC(=O)c1[nH]c(C)c(C)c1C(C)=O)C1CCCCC1)C(C)(C)C)C(=O)C(=O)NC1CC1` [Compound 65] yielded a Ki in assay [1] of less than 0.5 µM. Also, in assay [2], the half-maximal inhibitory concentration (IC50) was less than 0.5 µM.
In turn, `CCC[C@H](NC(=O)[C@@H]1C[C@@H](Oc2ncc(Cl)cn2)CN1C(=O)[C@@H](NC(=O)[C@@H](NC(=O)c1[nH]c(C)c(C)c1C(C)=O)C1CCCCC1)C(C)(C)C)C(=O)C(=O)NC1CC1` [Compound 67] gave a Ki in assay [1] of less than 0.5 µM. Besides, in assay [2], the IC50 was less than 0.5 µM.
In turn, `CCC[C@H](NC(=O)[C@@H]1[C@H]2CCC[C@H]2CN1C(=O)[C@@H](NC(=O)[C@@H](NC(=O)c1[nH]c(C)c(C)c1C(C)=O)C1CCCCC1)C(C)(C)C)C(=O)C(=O)NC1CC1` [Compound 68] had a Ki in assay [1] of less than 0.5 µM. Besides, the IC50 in assay [2] was less than 0.5 µM.
